Results from patent US11370774B2, “Substituted benzofuran, benzopyrrole, benzothiophene, and structurally related complement inhibitors” (BioCryst Pharmaceuticals, Inc., priority 2018, dated 2022).

The compounds below were run against Factor D (Homo sapiens (Human), UniProt P00746) (assay: Factor D esterolytic assay (Z-Lys-SBzl substrate, DTNB, 405 nm)). Conditions: Z-Lys-SBzl 1.29 mM, pH 7.5, 10% DMSO, tested a minimum of three times, read-out: Measured Ki (IC50) Value for Compounds: IC50.
Assay type: biochemical
How it was run: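 Human Factor D ([…]) with 1.29 mM Z-Lys-SBzl in 100 mM HEPES, 500 mM NaCl, pH 7.5, 10% DMSO; substrate added immediately or after room-temperature preincubation. Released thiol reacted with DTNB, rate followed at 405 nm for 600 sec, 690 nm background subtracted. IC50 from percent inhibition versus uninhibited rate, n≥3.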

Factor D, sequence (P00746 26-253): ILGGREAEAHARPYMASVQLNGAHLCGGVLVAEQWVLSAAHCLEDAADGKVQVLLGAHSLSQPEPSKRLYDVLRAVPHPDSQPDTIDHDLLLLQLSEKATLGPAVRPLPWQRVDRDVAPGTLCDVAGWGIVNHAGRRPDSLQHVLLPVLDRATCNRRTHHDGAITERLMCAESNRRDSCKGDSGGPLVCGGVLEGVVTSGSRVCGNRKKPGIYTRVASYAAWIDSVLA

Row | Compound | IC50
1 | Cc1ccc(CC(=O)O)c(OCc2cc(-c3ccnc(CN)c3F)c3occc3c2)c1C [Compound 305d, 2-(2-((7-(2-(aminomethyl)-3-fluoropyridin-4-yl)benzofuran-5-yl)methoxy)-3,4-dimethylphenyl)acetic acid] | < 1000 nM
2 | CCN(CC)c1ccc(CC(=O)O)c(OCc2cc(-c3cccc(CN)c3)c3occc3c2)c1 [Compound 306f, 2-(2-((7-(3-(aminomethyl)phenyl)benzofuran-5-yl)methoxy)-4-(diethylamino)phenyl)acetic acid] | < 1000 nM
3 | CC(C)c1ccc(CC(=O)O)c(OCc2cc(-c3cccc(CN)c3F)c3occc3c2)c1 [Compound 307f, 2-(2-((7-(3-(aminomethyl)-2-fluorophenyl)benzofuran-5-yl)methoxy)-4-isopropylphenyl)acetic acid] | < 1000 nM
4 | CC(C)(C)c1cc(OCc2cc(-c3cccc(CN)c3)c3occc3c2)c(CC(=O)O)cc1Cl [Compound 308h, 2-(2-((7-(3-(aminomethyl)phenyl)benzofuran-5-yl)methoxy)-4-(tert-butyl)-5-chlorophenyl)acetic acid] | < 1000 nM
5 | COCc1cc2cc(COc3cc(C(N)=O)ccc3CC(=O)O)cc(-c3cccc(CN)c3)c2o1 [Compound 309h, 2-(2-((7-(3-(aminomethyl)phenyl)-2-(methoxymethyl)benzofuran-5-yl)methoxy)-4-carbamoylphenyl)acetic acid] | < 1000 nM
6 | NCc1cc(-c2cc(COc3ccccc3CC(=O)O)cc3ccsc23)ccn1 [Compound 310c, 2-(2-((7-(2-(aminomethyl)pyridin-4-yl)benzo[b]thiophen-5-yl)methoxy)phenyl)acetic acid] | < 1000 nM
7 | NCc1cccc(-c2cc(COc3ccccc3Cc3nn[nH]n3)cc3ccoc23)c1 [Compound 311b, (3-(5-((2-((2H-tetrazol-5-yl)methyl)phenoxy)methyl)benzofuran-7-yl)phenyl)methanamine] | > 10000 nM
8 | CC(C)c1ccc(CC(=O)O)c(OCc2cc(-c3cccc(CN)c3)c3occc3c2)c1 [Compound 312b, 2-(2-((7-(3-(aminomethyl)phenyl)benzofuran-5-yl)methoxy)-4-isopropylphenyl)acetic acid] | < 1000 nM
9 | NCc1cccc(-c2cc(COc3cc(-c4ccoc4)ccc3CC(=O)O)cc3ccoc23)c1 [Compound 313c, 2-(2-((7-(3-(aminomethyl)phenyl)benzofuran-5-yl)methoxy)-4-(furan-3-yl)phenyl)acetic acid] | < 1000 nM
10 | Cc1cccc(OCc2cc(-c3cccc(CN)c3)c3occc3c2)c1CC(=O)O [Compound 314f, 2-(2-((7-(3-(aminomethyl)phenyl)benzofuran-5-yl)methoxy)-6-methylphenyl)acetic acid] | < 1000 nM
11 | CCc1ccc(CC(=O)O)c(OCc2cc(-c3cccc(CN)c3F)c3occc3c2)c1 [Compound 315f, 2-(2-((7-(3-(aminomethyl)-2-fluorophenyl)benzofuran-5-yl)methoxy)-4-ethylphenyl)acetic acid] | < 1000 nM
12 | CCc1ccc(CC(=O)O)c(OCc2cc(-c3cccc(CN)c3)c3occc3c2)c1 [Compound 316b, 2-(2-((7-(3-(aminomethyl)phenyl)benzofuran-5-yl)methoxy)-4-ethylphenyl)acetic acid] | < 1000 nM
13 | CC(C)(C)c1ccc(CC(=O)O)c(OCc2cc(-c3cccc(CN)c3)c3occc3c2)c1 [Compound 317f, 2-(2-((7-(3-(aminomethyl)phenyl)benzofuran-5-yl)methoxy)-4-(tert-butyl)phenyl)acetic acid] | < 1000 nM
14 | NCc1cccc(-c2cc(COc3cc(-c4ccco4)ccc3CC(=O)O)cc3ccoc23)c1 [Compound 318c, 2-(2-((7-(3-(aminomethyl)phenyl)benzofuran-5-yl)methoxy)-4-(furan-2-yl)phenyl)acetic acid] | < 1000 nM
15 | NCc1cccc(-c2cc(COc3cc(-c4cccnc4)ccc3CC(=O)O)cc3ccoc23)c1 [Compound 319c, 2-(2-((7-(3-(aminomethyl)phenyl)benzofuran-5-yl)methoxy)-4-(pyridin-3-yl)phenyl)acetic acid] | < 1000 nM
16 | Cc1cc(-c2ccc(CC(=O)O)c(OCc3cc(-c4cccc(CN)c4)c4occc4c3)c2)ccn1 [Compound 320c, 2-(2-((7-(3-(aminomethyl)phenyl)benzofuran-5-yl)methoxy)-4-(2-methylpyridin-4-yl)phenyl)acetic acid] | < 1000 nM

Now from value to compound:

Row | IC50 | Compound
17 | < 1000 nM | COc1ccc(C(SC)C(=O)O)c(OCc2cc(-c3cccc(CN)c3)c3occc3c2)c1 (stereo not drawn) [Compound 321f, 2-(2-((7-(3-(aminomethyl)phenyl)benzofuran-5-yl)methoxy)-4-methoxyphenyl)-2-(methylthio)acetic acid]
18 | < 1000 nM | Cc1cc(-c2ccc(CC(=O)O)c(OCc3cc(-c4cccc(CN)c4)c4occc4c3)c2)cnc1F [Compound 322c, 2-(2-((7-(3-(aminomethyl)phenyl)benzofuran-5-yl)methoxy)-4-(6-fluoro-5-methylpyridin-3-yl)phenyl)acetic acid]
19 | < 1000 nM | COc1ncc(-c2ccc(CC(=O)O)c(OCc3cc(-c4cccc(CN)c4)c4occc4c3)c2)cc1C [Compound 322d, 2-(2-((7-(3-(aminomethyl)phenyl)benzofuran-5-yl)methoxy)-4-(6-methoxy-5-methylpyridin-3-yl)phenyl)acetic acid]
20 | < 1000 nM | NCc1cccc(-c2cc(COc3cc(-c4ccncc4)ccc3CC(=O)O)cc3ccoc23)c1 [Compound 323c, 2-(2-((7-(3-(aminomethyl)phenyl)benzofuran-5-yl)methoxy)-4-(pyridin-4-yl)phenyl)acetic acid]
21 | < 1000 nM | N#Cc1ccc(-c2ccc(CC(=O)O)c(OCc3cc(-c4cccc(CN)c4)c4occc4c3)c2)s1 [Compound 324c, 2-(2-((7-(3-(aminomethyl)phenyl)benzofuran-5-yl)methoxy)-4-(5-cyanothiophen-2-yl)phenyl)acetic acid]
22 | < 1000 nM | NCc1cccc(-c2cc(COc3cc(-c4ccc(C(=O)O)s4)ccc3CC(=O)O)cc3ccoc23)c1 [Compound 325a, 5-(3-((7-(3-(aminomethyl)phenyl)benzofuran-5-yl)methoxy)-4-(carboxymethyl)phenyl)thiophene-2-carboxylic acid]
23 | < 1000 nM | NCc1cccc(-c2cc(COc3cccc(F)c3CC(=O)O)cc3ccoc23)c1 [Compound 328f, 2-(2-((7-(3-(aminomethyl)phenyl)benzofuran-5-yl)methoxy)-6-fluorophenyl)acetic acid]
24 | < 1000 nM | NCc1cc(-c2cc(COc3ccc(F)cc3CC(=O)O)cc3ccoc23)ccn1 [Compound 329b, 2-(2-((7-(2-(aminomethyl)pyridin-4-yl)benzofuran-5-yl)methoxy)-5-fluorophenyl)acetic acid]
25 | < 1000 nM | CC(=O)c1ccc(OCc2cc(-c3cccc(CN)c3)c3occc3c2)c(CC(=O)O)c1 [Compound 330c, 2-(5-acetyl-2-((7-(3-(aminomethyl)phenyl)benzofuran-5-yl)methoxy)phenyl)acetic acid]
26 | < 1000 nM | NCc1cccc(-c2cc(COc3ccc(CN)cc3CC(=O)O)cc3ccoc23)c1 [Compound 331c, 2-(5-(aminomethyl)-2-((7-(3-(aminomethyl)phenyl)benzofuran-5-yl)methoxy)phenyl)acetic acid]
27 | < 1000 nM | NCc1cccc(-c2cc(COc3ccccc3CC(=O)O)cc3[nH]c(C(F)(F)F)cc23)c1 [Compound 332e, 2-(2-((4-(3-(aminomethyl)phenyl)-2-(trifluoromethyl)-1H-indol-6-yl)methoxy)phenyl)acetic acid]
